From patent US7666879B2, “Imidazo[1,2-A]pyridine compounds as VEGF-R2 inhibitors” (Eli Lilly and Company, priority 2005, dated 2010)

Columns and labels:
[1] = target: T1, VEGFR2 (KDR) (Homo sapiens, UniProt P35968); assay: KDR-CD in vitro autophosphorylation kinase assay; assay type: biochemical; settings: 30 minute preincubation of compound and enzyme; average of at least two separate determinations; 1 μM ATP
T1 construct: The isolated catalytic domain (Amino Acids 807-1356) of VEGFR2; 6xHis (N); made in house; host or cells: Sf9 insect cells (baculovirus, pFASTBac-HIS)
Protocol: The following assay is performed to measure the IC50 values of inhibition of phosphorylation of VEGF-R2 with compounds of the present invention.
Autophosphorylation Enzyme Assay
A. VEGFR2 (KDR) cloning and purification.
The isolated catalytic domain (Amino Acids 807-1356) of VEGFR2 (KDR-CD, cloned from a human heart cDNA library) is cloned by standard PCR procedures (pCR-Script to make plasmid P340) as a BamHI/HindIII fragment using the following primers: Upper: 5′-[…]-3′ and Lower: 5′-[…]-3′, its nucleotide sequence is verified and it is subcloned into the pFASTBac-HIS™ vector system (Gibco-BRL) (to give plasmid B344) for baculovirus expression. (Carroll, et al., J. Biol. Chem, 268, 12837-42 (1993). KDR-CD is expressed as an N-terminal 6×HIS fusion protein in Sf9 cells (Gibco-BRL) and purified according to standard affinity chromatography protocols (For example, Amersham Pharmacia Biotech: Affinity Chromatography Principles and Methods #18-1022-29). Briefly, 15-25 g pellets are lysed in lysis buffer (50 mM Tris pH 7.5, 150 mM NaCl, 0.5% NP40 (CalbioChem) with freshly added 20 mM -mercaptoethanol, 10 mM imidazole, 1 mM PMSF(protease inhibitor (phenylmethanesulfonyl fluoride) from Sigma), 1×EDTA-free complete protease inhibitor (Boehringer Mannheim)) on ice for 30 minutes. The cell lysates are cleared by centrifugation at 30,000 g for 20 minutes at 4° C., filtered through a […] and applied to a NiNTA™ column (Qiagen). Unbound protein is removed with successive RIPA buffer washes (50 mM Tris pH 7.5, 150 mM NaCl, 1% NP40, 1 mM EDTA, 0.25% sodium deoxycholate, 20 mM -mercaptoethanol), lysis buffer washes and finally 1× kinase buffer (KB) washes (100 mM HEPES pH 7.5, 10 mM MnCl2, 5 mM -mercaptoethanol). KDR protein is eluted in 1× KB containing a linear gradient of 200 mM imidazole over 10 column volumes. The peak fractions (based on a SDS-PAGE gel analysis) are combined, concentrated by Centricon™ to ˜1 mg/mL and desalted over an HR26/10 desalting column (Amersham Pharmacia) in 1× KB. This KDR prep is estimated to be ˜40% pure with only KDR tyrosine kinase activity detectable by anti-phosphotyrosine western analysis following the in vitro autophosphorylation reaction.
B. KDR-CD In Vitro Autophosphorylation Kinase Assay
Kinase reactions contain 1 μg total protein in 40 μL reaction volume containing 4% (v/v) DMSO final concentration, 1 μM ATP, 1 uCi/rxn ^33P-ATP (from NEN) in 1×KB. A compound dilution series of 20 μM to 1.0 nM is added to the above reaction to determine compound activity; test compound may be pre-incubated with KDR enzyme for up to 30 minutes at 30° C. prior to addition of the radiolabel. The radiolabeling reaction is carried out at 30° C. for 20 minutes before adding 100 μL 25% TCA with 3 mM ATP to stop the reaction, then precipitated with 50 μL 1 mg/mL BSA. The quenched reactions are transferred to MultiScreen™-FC plates (Millipore) and incubated for 1 hour at room temperature. The plates are filtered, washed 3× with 250 μL 10% TCA and blotted dry. MicroScint™20 (Packard) is added and the plate is counted on a Wallac Microbeta™. Dougher-Vermazen, M. et al., Biochem Biophys Res Commun 205(1): 728-738 (1994). The IC50 values are calculated from a logistic 4-parameter curve fit.
All values are determined using a 30 minute preincubation of compound and enzyme prior to initiating the labeling reaction and represent the average of at least two separate determinations: […]

[2] = tested on: PC-3 human prostate adenocarcinoma cells; assay: In vivo efficacy in PC-3 prostate tumor xenografts; design: species or system mice; key to Mean Tumor Volume: mg, volume calculated as l×w^2×0.536 from caliper diameters; settings: for Signif. (tumor volume vs vehicle control, two-way ANOVA) / Mean Tumor Volume: oral gavage
Protocol: In Vivo Efficacy in PC-3 Prostate Tumor Xenografts
Male SCID mice (Fox Chase, Taconic laboratories) are implanted s.c. in the rear flank with 0.2 mL of a cell suspension prepared in serum-free media containing 5×10^6 PC-3 human prostate adenocarcinoma cells (obtained from ATCC). Example 130 is prepared as a suspension in 1% CMC/0.25% Tween 80 and administered by oral gavage for 21 days beginning after tumors reach approximately 150-200 mg (volume calculated by l×w^2×0.536 where l is the larger and w is the smaller of perpendicular diameters determined by caliper measurement). Example 130 is administered twice daily (12 hours apart) for the 15, 7.5, and 3.75 mg/kg doses while the 30 mg/kg dose is given once daily. Groups consists of 8 mice each and one group receives 0.2 mL of the CMC/Tween vehicle twice daily as a control.

T1 sequence (P35968 807-1356): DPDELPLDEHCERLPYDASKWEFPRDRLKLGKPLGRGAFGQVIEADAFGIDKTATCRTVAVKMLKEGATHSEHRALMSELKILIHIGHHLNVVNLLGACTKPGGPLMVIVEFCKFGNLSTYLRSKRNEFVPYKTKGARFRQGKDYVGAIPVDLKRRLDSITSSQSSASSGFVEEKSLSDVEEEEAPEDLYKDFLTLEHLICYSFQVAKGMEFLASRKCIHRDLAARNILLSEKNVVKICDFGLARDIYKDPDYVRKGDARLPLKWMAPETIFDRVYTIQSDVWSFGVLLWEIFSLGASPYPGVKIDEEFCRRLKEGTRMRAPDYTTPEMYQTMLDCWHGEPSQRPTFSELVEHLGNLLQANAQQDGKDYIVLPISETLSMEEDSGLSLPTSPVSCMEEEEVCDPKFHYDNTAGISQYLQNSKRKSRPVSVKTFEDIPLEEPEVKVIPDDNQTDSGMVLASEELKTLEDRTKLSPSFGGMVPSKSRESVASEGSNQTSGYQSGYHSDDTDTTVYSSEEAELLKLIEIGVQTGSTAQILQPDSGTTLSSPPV

Question: Which IC50 [1] does the source give for `CC(C)(C)c1cnc(NC(=O)NCc2ccc(-c3cnc4cc(-c5ccncc5)ccn34)cc2)s1` [Example 39, 1-(5-tert-Butyl-thiazol-2-yl)-3-[4-(7-pyridin-4-yl-imidazo[1,2-a]pyridin-3-yl)-benzyl]-urea, methane sulfonate] here?
Answer: 28 nM

Question: How did the IC50 [1] turn out when `CC(C)(C)c1cc(NC(=O)Cc2ccc(-c3cnc4cc(-c5ccncc5)ccn34)cc2)ncn1` [Example 289, N-(6-tert-Butyl-pyrimidin-4-yl)-2-[4-(7-pyridin-4-yl-imidazo[1,2-a]pyridin-3-yl)-phenyl]-acetamide] was run?
Answer: 41 nM

Question: With `CC(C)(C)c1cc(NC(=O)Cc2ccc(-c3cnc4cc(-c5cn[nH]c5)ccn34)cc2)no1` [Example 303, N-(5-tert-Butyl-isoxazol-3-yl)-2-{4-[7-(1H-pyrazol-4-yl)-imidazo[1,2-a]pyridin-3-yl]-phenyl}-acetamide] as the compound, how does the IC50 [1] read?
Answer: 46 nM

Question: With `CC(C)(C)c1cc(NC(=O)Nc2ccc(-c3cnc4cc(-c5ccncc5)ccn34)cc2F)no1` [Example 130, 1-(5-tert-Butyl-isoxazol-3-yl)-3-[2-fluoro-4-(7-pyridin-4-yl-imidazo[1,2-a]pyridin-3-yl)-phenyl]-urea] as the compound, how does the “Signif. (tumor volume vs vehicle control, two-way ANOVA)” value ([2]; 3.75 mg/kg twice daily, Day 55) read?
Answer: ** (**: 0.001 < p <= 0.01)

Question: What about the “Mean Tumor Volume” value ([2]; 3.75 mg/kg twice daily, Day 55, PC-3 xenograft in male SCID mice) of the same compound?
Answer: 268.1

Question: What about the “Signif. (tumor volume vs vehicle control, two-way ANOVA)” value ([2]; 3.75 mg/kg twice daily, Day 57) of the same compound?
Answer: *** (***: p <= 0.001)

Question: What about the “Mean Tumor Volume” value ([2]; 3.75 mg/kg twice daily, Day 57, PC-3 xenograft in male SCID mice) of the same compound?
Answer: 310.1

Question: And the “Signif. (tumor volume vs vehicle control, two-way ANOVA)” value ([2]; 7.5 mg/kg twice daily, Day 55)?
Answer: *** (***: p <= 0.001)

Question: What about the “Mean Tumor Volume” value ([2]; 7.5 mg/kg twice daily, Day 55, PC-3 xenograft in male SCID mice) of the same compound?
Answer: 100.8

Question: What about the “Signif. (tumor volume vs vehicle control, two-way ANOVA)” value ([2]; 7.5 mg/kg twice daily, Day 57) of the same compound?
Answer: *** (***: p <= 0.001)

Question: What about the “Mean Tumor Volume” value ([2]; 7.5 mg/kg twice daily, Day 57, PC-3 xenograft in male SCID mice) of the same compound?
Answer: 86.3

Question: What about the “Signif. (tumor volume vs vehicle control, two-way ANOVA)” value ([2]; 15 mg/kg twice daily, Day 55) of the same compound?
Answer: *** (***: p <= 0.001)

Question: And the “Mean Tumor Volume” value ([2]; 15 mg/kg twice daily, Day 55, PC-3 xenograft in male SCID mice)?
Answer: 67.7

Question: What about the “Signif. (tumor volume vs vehicle control, two-way ANOVA)” value ([2]; 15 mg/kg twice daily, Day 57) of the same compound?
Answer: *** (***: p <= 0.001)

Question: What about the “Mean Tumor Volume” value ([2]; 15 mg/kg twice daily, Day 57, PC-3 xenograft in male SCID mice) of the same compound?
Answer: 62.2

Question: And the “Signif. (tumor volume vs vehicle control, two-way ANOVA)” value ([2]; 30 mg/kg once daily, Day 55)?
Answer: *** (***: p <= 0.001)

Question: What about the “Mean Tumor Volume” value ([2]; 30 mg/kg once daily, Day 55, PC-3 xenograft in male SCID mice) of the same compound?
Answer: 95.7

Question: What about the “Signif. (tumor volume vs vehicle control, two-way ANOVA)” value ([2]; 30 mg/kg once daily, Day 57) of the same compound?
Answer: *** (***: p <= 0.001)

Question: And the “Mean Tumor Volume” value ([2]; 30 mg/kg once daily, Day 57, PC-3 xenograft in male SCID mice)?
Answer: 86.8

Question: And the “tumor volume, treatment groups versus control group at study termination” value ([2]; male SCID mice, oral gavage for 21 days, 15, 7.5, 3.75 mg/kg twice daily, 30 mg/kg once daily, two-way ANOVA)?
Answer: statistically different from the control group (p<0.001)

Question: And the IC50 [1]?
Answer: 42 nM

Question: For `O=C(Cc1ccc(-c2cnc3cc(-c4ccncc4)ccn23)cc1)Nc1cccc(C(F)(F)F)c1` [Example 173, 2-[4-(7-Pyridin-4-yl-imidazo[1,2-a]pyridin-3-yl)-phenyl]-N-(3-trifluoromethyl-phenyl)-acetamide], which IC50 [1] is on record?
Answer: 26 nM

Question: `CC(C)(C)c1cc(NC(=O)Cc2ccc(-c3cnc4cc(-c5ccc(S(C)(=O)=O)cc5)ccn34)cc2F)no1` [Example 196, N-(5-tert-Butyl-isoxazol-3-yl)-2-{2-fluoro-4-[7-(4-methanesulfonyl-phenyl)-imidazo[1,2-a]pyridin-3-yl]-phenyl}-acetamide] was tested. Which IC50 [1] did it give?
Answer: 106 nM
